The text below walks through data of PubChem BioAssay (NCI).

The structures appear in SMILES notation. “And” between values parts separate entries of the source, which are not always exact repeats. Equal values may be shown once.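 Compound exposure: 48 hours, 5 concentrations, 96-well plates. GI50 = concentration required for 50% inhibition of growth. At the TGI there is no net growth.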

Test systems include SF-539 CNS; T-47D breast; SK-MEL-2 melanoma; MCF7 breast; HOP-92 NSCLC; NCI-H226 lung; K-562 leukemia.
Holding throughout (assay): growth of human tumour cells (NCI), 48 h

Regarding `Fc1nc(Sc2ncnc3nc[nH]c23)nc(-c2c3ccccc3c3sc4ccccc4n23)n1`, the TGI with SF-539 CNS, in the experiment with T-47D breast, in the experiment with SK-MEL-2 melanoma, in the experiment with MCF7 breast, with HOP-92 NSCLC and in the experiment with NCI-H226 lung was > 100 µM each time. Also, in the experiment with K-562 leukemia, the TGI was > 100 µM.

As for `CNc1ccc(CSc2ccc(C)cc2)cc1`, the GI50 was 3.69 µM in the experiment with SF-539 CNS; 13.5 µM with T-47D breast; 38.5 µM in the experiment with SK-MEL-2 melanoma; 21.2 µM in the experiment on MCF7 breast; 2.36 µM in the experiment on HOP-92 NSCLC; 3.43 µM in the experiment with NCI-H226 lung. Besides, the TGI was 24.5 µM with SF-539 CNS; > 100 µM in the experiment on T-47D breast; > 100 µM in the experiment on SK-MEL-2 melanoma; > 100 µM in the experiment with MCF7 breast; 25.9 µM in the experiment with HOP-92 NSCLC; 16.4 µM in the experiment on NCI-H226 lung.

Turning to `Cc1ncc([N+](=O)[O-])n1CCOc1ccc(C(=O)/C=C/c2ccc(C(F)(F)F)cc2)cc1`, the GI50 is 1.65 µM in the experiment on SF-539 CNS; 3.43 µM in the experiment with SK-MEL-2 melanoma; 1.7 µM with MCF7 breast; 4.25 µM with NCI-H226 lung; 1.53 µM in the experiment on K-562 leukemia. The TGI in the experiment on SF-539 CNS was found to be 3.07 µM; with SK-MEL-2 melanoma, 13.6 µM; in the experiment with MCF7 breast, 4.01 µM; with NCI-H226 lung, 20.4 µM; with K-562 leukemia it was 3.83 µM.

For `CCCCCCC1CCCCN1C(c1ccccc1)C(O)c1ccccc1` (stereo not drawn), the GI50 with SF-539 CNS was 11.6 µM; in the experiment on T-47D breast it was 4.68 µM; with SK-MEL-2 melanoma, 5.33 µM; with MCF7 breast, 3.78 µM; in the experiment on HOP-92 NSCLC, 2.84 µM; in the experiment with NCI-H226 lung, 7.74 µM. The GI50 with K-562 leukemia was 4.23 µM. The TGI with SF-539 CNS was 24.3 µM; in the experiment with T-47D breast, 19.1 µM; in the experiment with SK-MEL-2 melanoma, 20.5 µM; in the experiment with MCF7 breast, 14.8 µM; in the experiment on HOP-92 NSCLC, 9.05 µM; with NCI-H226 lung, 21.9 µM. The compound also returned a TGI with K-562 leukemia of 21.7 µM.

Turning to `COc1cc(/C=C/C(=O)/C=C/c2ccc(-n3ccnc3)cc2)ccc1O`, the GI50 in the experiment with SF-539 CNS was 2.47 µM; with T-47D breast, 2.98 µM; with SK-MEL-2 melanoma it was 20.8 µM; in the experiment on MCF7 breast, 0.827 µM; in the experiment with HOP-92 NSCLC, 10.5 µM; in the experiment with NCI-H226 lung, 2.31 µM. Besides, the GI50 with K-562 leukemia was 3.18 µM. In addition, the TGI with SF-539 CNS came to 6.31 µM; in the experiment on T-47D breast it was 9.92 µM; with SK-MEL-2 melanoma, 55.8 µM; with MCF7 breast it was 6.21 µM; in the experiment on HOP-92 NSCLC, 27.1 µM; with NCI-H226 lung it was 5.8 µM. In the experiment on K-562 leukemia, the TGI is > 100 µM.

With `O=C(NCCNC1=CC(=O)c2nc3ccccc3c3ccnc1c23)c1cnccn1`, the GI50 was 51.5 µM with SF-539 CNS; 44.7 µM in the experiment with T-47D breast; 60.5 µM with SK-MEL-2 melanoma; 21.4 µM with MCF7 breast; 16.1 µM in the experiment with HOP-92 NSCLC; 90.7 µM with NCI-H226 lung. Further, the GI50 with K-562 leukemia is 33.6 µM. For the same compound, the TGI in the experiment on SF-539 CNS, with T-47D breast, in the experiment with SK-MEL-2 melanoma, in the experiment on MCF7 breast, in the experiment with HOP-92 NSCLC and with NCI-H226 lung was > 100 µM in each case. Further, in the experiment with K-562 leukemia, the TGI was > 100 µM.

Consider `COc1ccc(N=C2C(=O)Nc3ccc(Br)cc32)cc1`, for which the TGI was 35.8 µM in the experiment with SF-539 CNS; 74.6 µM with T-47D breast; 35.2 µM with MCF7 breast; 69 µM with HOP-92 NSCLC; 35.5 µM in the experiment with NCI-H226 lung; 33.2 µM in the experiment on K-562 leukemia.

Turning to `COc1ccc2cc1Oc1ccc(cc1)CC1c3c(cc(OC)c4c3Oc3cc5c(cc3O4)CCNC5C2)CCN1C` (stereo not drawn), the GI50 in the experiment on SF-539 CNS is 1.9 µM; with T-47D breast, 1.75 µM; in the experiment with SK-MEL-2 melanoma, 2.19 µM; in the experiment on NCI-H226 lung it was 2.3 µM. Moreover, the TGI with SF-539 CNS was 3.23 µM and 3.69 µM; in the experiment on T-47D breast, 3.53 µM; with SK-MEL-2 melanoma, 3.49 µM and 3.85 µM; in the experiment with MCF7 breast, 3.38 µM; in the experiment with HOP-92 NSCLC it was 6.76 µM; with NCI-H226 lung it was 4.18 µM.

On to `CC(C)(C)OC(=O)CC(S(=O)(=O)c1ccccc1)S(=O)(=O)c1ccccc1`, for which the GI50 with SF-539 CNS was 17.4 µM; in the experiment with T-47D breast, 2.32 µM; in the experiment on SK-MEL-2 melanoma it was 17 µM; with MCF7 breast, 13.5 µM; in the experiment on NCI-H226 lung, 4.84 µM; with K-562 leukemia, 3.4 µM. The TGI with SF-539 CNS came to 33.1 µM; in the experiment on T-47D breast it was 4.48 µM; in the experiment with SK-MEL-2 melanoma, 36.2 µM; with MCF7 breast it was 33 µM; with NCI-H226 lung it was 22.7 µM; with K-562 leukemia, 13.5 µM.

For `Cc1cn([C@H]2CN(O)C[C@@H](CO)O2)c(=O)[nH]c1=O`, the TGI in the experiment with SF-539 CNS, in the experiment with T-47D breast, with SK-MEL-2 melanoma, in the experiment on MCF7 breast, with NCI-H226 lung and with K-562 leukemia was > 100 µM each time.

For `CC[C@]1(O)C[C@@H]2CN(CCc3c([nH]c4ccccc34)[C@@](C(=O)OC)(c3cc4c(cc3OC)N(C)[C@H]3[C@@](O)(C(=O)OC)[C@H](OC(=O)CCCBr)[C@]5(CC)C=CCN6CC[C@]43[C@@H]65)C2)C1`, the GI50 is 0.0331 µM in the experiment on SK-MEL-2 melanoma; < 0.01 µM in the experiment on MCF7 breast; 0.0877 µM in the experiment with HOP-92 NSCLC; 5.87 µM in the experiment on NCI-H226 lung; < 0.01 µM with K-562 leukemia. The TGI was > 100 µM with SK-MEL-2 melanoma; > 100 µM in the experiment on MCF7 breast; 3.53 µM in the experiment on HOP-92 NSCLC; 99.7 µM with NCI-H226 lung; > 100 µM in the experiment with K-562 leukemia.

As for `COc1cc2c(cc1OC)C(Sc1ccc(Cl)cc1)c1c(nc(N)c(C#N)c1N)O2` (stereo not drawn), the GI50 in the experiment on SF-539 CNS was 1.61 µM; in the experiment on T-47D breast, 1.29 µM; in the experiment with SK-MEL-2 melanoma it was 1.2 µM; in the experiment with MCF7 breast it was 0.564 µM; in the experiment with HOP-92 NSCLC it was 1.51 µM; in the experiment with K-562 leukemia, 0.791 µM. For the same compound, the TGI with SF-539 CNS is 3.03 µM; in the experiment on T-47D breast, 3.65 µM; with SK-MEL-2 melanoma, 2.55 µM; with MCF7 breast, 2.91 µM; with HOP-92 NSCLC, 3.19 µM; in the experiment with K-562 leukemia, 8.28 µM.

On to `CC1(C)N=C(N)N=C(N)N1c1ccc(CCCCCCc2ccc(S(=O)(=O)F)cc2)cc1`, for which the TGI is 52 µM in the experiment on T-47D breast; 30.2 µM in the experiment on SK-MEL-2 melanoma; > 32.3 µM in the experiment on MCF7 breast; 3.15 µM in the experiment with HOP-92 NSCLC; 1.96 µM in the experiment on NCI-H226 lung; > 33.3 µM with K-562 leukemia.
